Laboratory results taken from patent US20260306460A1, “COMPOSITION FOR REMOVING AND INHIBITING SENESCENT CELLS, AND USES THEREOF” (LIFECEUTIX CO., LTD., priority 2023, published 2026).

How the values were obtained:
senescent human cells = test: Viability of doxorubicin-induced senescent human cells (CellTiter-Glo), Example 11; assay type: cell-based
Protocol: Cells in which senescence was induced by treatment with doxorubicin were treated with the test compound at designated concentrations and measured using the CellTiter-Glo Luminescent Cell Viability Assay (Promega).
After 3 days, cell viability was measured using CellTiter-Glo Luminescent Cell Viability Assay (Promega) or light microscopy.

SAOS-2 = test: Suppression of doxorubicin-senescent SAOS-2 tumors in nude mice, Example 19; assay type: in vivo, mouse; conditions: after DOX 10 mg/kg ip; 21 days daily; LX-5701 360 mg/kg po, LX-2101 20 mg/kg ip, LX-2102 10 mg/kg ip; DOX repeated as control
Protocol: Seven-week-old male BALB/c nude mice (KRIBB Laboratory Animal Resource Center) were acclimated to the experimental environment for one week, after which they were randomly assigned to experimental and control groups. Evaluation was performed using the same method as in Example 2-1 of WO2023-085787 A1. Cultured human osteosarcoma cell lines, SAOS-2 (10^6 cells), were mixed in phosphate-buffered saline (PBS) and administered subcutaneously to anesthetized mice using 2% isoflurane (Sigma). When the tumors reached approximately […], doxorubicin (10 mg/kg) was mixed in a 1:1 solution of distilled water and PBS (pH 7.2) and administered intraperitoneally to induce tumor senescence. After 10 days, LX-5701 mixed in PBS at a concentration of 360 mg/kg was administered orally daily for 21 days, or LX-2101 mixed in PBS solution with 5% DMSO at a concentration of 20 mg/kg or LX-2102 mixed in PBS with 5% DMSO at a concentration of 10 mg/kg was administered intraperitoneally daily for 21 days, and then the tumor size was measured. The control group was repeatedly administered a solution mixed with doxorubicin, and then the tumor size was measured.

[1] = system: bleomycin-induced pulmonary fibrosis C57BL6J mice; test: Bleomycin pulmonary fibrosis in mice (p16, IL6, Col1a1 mRNA, alveoli size), Example 24-1, Table 47; assay type: in vivo, mouse; conditions: for Airspace enlargement: average size of alveoli, untreated 39.8 (±0.4); for Col1a1 mRNA / IL6 mRNA / p16 mRNA: lung, daily for 21 days, untreated 100%
Protocol: Eight-week-old male C57BL6J mice (KRIBB Laboratory Animal Resource Center) were acclimated to the experimental environment for one week. They were then administered the anticancer drug bleomyxin via intratracheal inhalation at a concentration of 2.5 mg/kg, inducing aging for more than 10 days. The aging-induced mice were randomly assigned to experimental and control groups. […] LX-3002 was mixed in distilled water with 4% DMSO, 30% PEG300, 5% tween80 and administered orally at a concentration of 10 mg/kg daily for 21 days. LX-5701 was mixed in PBS and administered orally at a concentration of 360 mg/kg daily for 21 days. LX-6807 was mixed in saline and administered intraperitoneally at a concentration of 1 mg/kg daily for 21 days. The control group received only the solution in the same volume. After the end of drug administration, mice were sacrificed in the same manner as in Example 7-2 of WO2023-085787 A1, RNA was extracted from lung tissue, and qRT-PCR (quantitative real-time PCR) was performed and analyzed using the synthesized cDNA. […] The amount of mRNA after aging was calculated as 100%, and the results after treatment with the test compound were compared. Furthermore, paraffin sections were stained with hematoxylin/eosin (H/E), and the size of alveoli was measured under an optical microscope to assess the degree of lung function impairment due to pulmonary fibrosis.

[2] = system: naturally aged C57BL6J mice; test: Kidney damage markers (urea, creatinine, Agtr1a mRNA) in naturally aged mice, Example 21-9, Table 24; assay type: in vivo, mouse; conditions: untreated aged = 100%; for Agtr1a mRNA (%): qRT-PCR; for Creatinine (%) / Urea (%): serum
Protocol: 22-month-old female C57BL6J mice (KRIBB Laboratory Animal Resource Center) were acclimated to the experimental environment for one week, after which the aged mice were randomly assigned to experimental and control groups. Eight-week-old, non-aged mice served as controls. LX-403 was mixed in a 10% ethanol solution of PEG400 and administered orally at a concentration of 25 mg/kg daily for 21 days, or administered to the skin, joints, or eyes at a concentration of 1 μM. LX-1801 was mixed in distilled water with 4% DMSO, 30% PEG300, and 5% Tween80 and administered to the skin, joints, or eyes at a concentration of 0.4 μM daily for 21 days. LX-2001 was mixed in PBS and administered to the skin, joints, or eyes at a concentration of […] daily for 21 days. LX-2002 was mixed in distilled water with 4% DMSO, 30% PEG300, and 5% Tween80 and administered to the skin, joints, or eyes at a concentration of 2 μM daily for 21 days. […] LX-2005 was mixed in distilled water with 4% DMSO, 30% PEG300, and 5% Tween80 and administered to the skin, joints, or eyes at a concentration of 90 μM daily for 21 days. LX-2007 was mixed in distilled water with 4% DMSO, 30% PEG300, and 5% Tween80 and administered to the skin, joints, or eyes at a concentration of 90 μM daily for 21 days. […] LX-3002 was mixed in distilled water with 4% DMSO, 30% PEG300, and 5% Tween80 and administered orally at a concentration of 10 mg/kg daily for 21 days. […] LX-5411 was mixed in 5% PBS and administered orally at a concentration of 10 mg/kg daily for 21 days or administered to the skin, joints, or eyes at a concentration of 3 μM. LX-5701 was mixed in PBS and administered orally at a concentration of 360 mg/kg daily for 21 days. LX-6807 was mixed in saline and administered intraperitoneally at a concentration of 1 mg/kg daily for 21 days. LX-2101 or LX-2102 was mixed in PBS solution with 5% DMSO and administered intraperitoneally at a concentration of 20 mg/kg or 10 mg/kg, respectively, daily for 21 days. The control group received only the solution in the same volume. After the end of drug administration, the methods described in each example below were performed.
The levels of urea and creatinine, markers of kidney damage, in serum collected from mice were measured spectrophotometrically using kits (BioAssay Systems and Sigma). Additionally, the amount of Agtr1a mRNA, a marker of kidney damage, was measured using qRT-PCR as described in Example 7-2 of WO2023-085787 A1. […] The amount of each factor after aging was calculated as 100% and compared with the amount of each factor after test compound treatment.

[3] = system: doxorubicin-induced aged C57BL6J mice; test: Liver damage (AST, ALT) in doxorubicin-aged mice, Example 22-8, Table 37; assay type: in vivo, mouse; conditions: serum, amount after aging calculated as 100%
Protocol: Eight-week-old male C57BL6J mice (KRIBB Laboratory Animal Resource Center) were acclimated to the experimental environment for one week. […] The aging-induced mice were randomly assigned to experimental and control groups. […] The control group received only the solution in the same volume.
The amounts were measured spectrophotometrically using a kit (Sigma) according to the manufacturer's instructions. […] The amount of each factor after aging was calculated as 100% and compared with the amount of each factor after treatment with the test compound.

Compound	Tumor Diameter (SAOS-2)	Airspace enlargement [1]	Col1a1 mRNA [1]	IL6 mRNA [1]	p16 mRNA [1]	Agtr1a mRNA (%) [2]	Creatinine (%) [2]	Urea (%) [2]	ALT [3]	AST [3]	other results
COC(=O)c1ccc([C@H]2c3[nH]c4ccccc4c3C[C@H](C(=O)OC)N2C(=O)CCl)cc1 [LX-405]											induced death of cells (senescent human cells; senescent foreskin cells, 30 μM, 3 days): induced the death of most cells
S=C(N/N=C1\CCCc2cccnc21)N1CCN(c2ccccn2)CC1 [LX-801]											Survival (senescent human cells; 1.1 μM, 0 μM = 100): 50.5%; Survival (senescent human cells; 10 μM, 0 μM = 100): 28.2%; Survival (senescent human cells; […], 0 μM = 100): 48.9%
C[C@H]1[C@H](C)CC[C@]2(C(=O)O)CC[C@]3(C)C(=CC[C@@H]4[C@@]5(C)CC[C@H](O)C(C)(C)[C@@H]5CC[C@]43C)[C@H]12 [LX-2001, Ursolic acid]											viability at […] (senescent human cells; Homo sapiens, 3.3 μM, 0 μM = 100, read-out: Survival): 0.8%
CC1(C)CC[C@]2(NC(=O)C(C)(F)F)CC[C@]3(C)[C@H](C(=O)C=C4[C@@]5(C)C=C(C#N)C(=O)C(C)(C)[C@@H]5CC[C@]43C)[C@@H]2C1 [LX-2101, Omaveloxolone]	6.8 (±1.4) mm										
COC(=O)[C@]12CCC(C)(C)C[C@H]1[C@H]1C(=O)C=C3[C@@]4(C)C=C(C#N)C(=O)C(C)(C)[C@@H]4CC[C@@]3(C)[C@]1(C)CC2 [LX-2102, Bardoxolone methyl]	7.1 (±2.6) mm										
CCCC\C=C/C=C/C=C\CCCCCCCC(=O)O [LX-2707, Punicic acid]		35.4 (±1.8) μm	70 (±6.5) %	38 (±4.1) %	43 (±4.2) %	68 (±3.3) %	73 (±4.3) %	78 (±3.1) %	76 (±5.6) %	70 (±3.2) %	
O=C1C2CCN(CC2)C1CNC(=O)C(F)(F)F (centres unmarked) [LX-5701]	6.1 (±4.9) mm	30.1 (±2.7) μm	52 (±13.9) %	59 (±13.2) %	65 (±7.1) %	44 (±2.3) %	68 (±6.3) %	71 (±4.0) %	64 (±15.7) %	72 (±13.5) %	
Cc1cccc([C@H](C)c2cnc[nH]2)c1C [LX-6807, Dexmedetomidine]		33.8 (±3.6) μm	56 (±3.6) %	48 (±2.4) %	54 (±1.9) %	37 (±4.0) %	57 (±2.0) %	68 (±2.7) %	80 (±6.7) %	75 (±7.0) %	
Tocofersolan [LX-3001]		36.2 (±2.2) μm	64 (±3.9) %	51 (±3.6) %	65 (±3.8) %	61 (±2.0) %	75 (±3.2) %	81 (±5.4) %			Survival (senescent human cells; 1.1 μM, 0 μM = 100): 74.8%; Survival (senescent human cells; […], 0 μM = 100): 1.1%
